The results in this text go back to US5695970A, “Glucan lyase producing 1,5-anhydrofructose” (priority 1992, dated 1997).

Entries after “also recorded” stand apart in the source; their conditions may differ.

The test system of experiment [1] is α-1,4-glucan lyase. In words: Substrate specificity of α-1,4-glucan lyase, long term incubation (24 h), continuation of Table IV. The class given is biochemical, Gracilariopsis lemaneiformis. The conditions noted are these: for Product released: 24 h; for release of 1,5-anhydrofructose and glucose checked by TLC on Silica gel 60: after 24 h of incubation; for activity of the lyase with the substrate (in words): long term incubation at 30° C. As for the experimental part:
The incubation time was 24 h.
(§1) The reaction mixture for the assay of α-1,4-glucan lyase was composed of 240 μl 62.5 mM Mops-NaOH containing 6 mg soluble starch (pH 6.2), the enzyme preparation and distilled water to a final volume of 300 μl. The reaction was carried out at 30° C. for 10-30 min. Liberated 1,5-anhydrofructose was determined by monitoring the absorbance at 546 nm after the addition of 3,5-dinitrosalicylic acid reagent. Soluble starch in the reaction mixture may be replaced by other substrates and the final substrate concentration may be varied as indicated in the text. The reaction time and enzyme concentration used in enzyme activity assay have been chosen to ensure the linearity of the reaction rate. One unit of α-1,4-glucan lyase activity is defined as the amount of enzyme which liberates 1μmol of 1,5-anhydrofructose min^-1 under the conditions described above.

Experiment [2] has as its system α-1,4-glucan lyase. In words: Inhibition studies of α-1,4-glucan lyase activity. The experiment is classed as biochemical, Gracilariopsis lemaneiformis. The conditions noted are these: for inhibition of enzymic activity: 0.1M; for inhibition of the algal enzyme (in words): summary statement; for inhibition of the enzyme: 50mM. The method, then: as §1
[3] abbreviates: substrate 10 mg ml^-1, 1.64 μg enzyme.
Where [4] appears, read: substrate 4 mg ml^-1, 1.64 μg enzyme.
Setting [5] is: substrate 10 mM, 1.64 μg enzyme.
Where [6] appears, read: inhibitor 2 mM, amylopectin as substrate.
Setting [7] is: inhibitor 2 mM, maltose as substrate.

Take `Nc1ncnc2c1ncn2[C@@H]1O[C@H](COP(=O)(O)OP(=O)(O)O[C@H]2O[C@H](CO)[C@@H](O)[C@H](O)[C@H]2O)[C@@H](O)[C@H]1O` [ADP-Glucose]: in experiment [1] (substrate 5 mM, 1.64 μg enzyme), the Product released is 0 nmol.
Turning to `OC[C@H]1O[C@@](CO)(O[C@H]2O[C@H](CO)[C@@H](O)[C@H](O)[C@H]2O)[C@@H](O)[C@@H]1O` [Sucrose, sucrose], the “release of 1,5-anhydrofructose and glucose checked by TLC on Silica gel 60” value (“release … on Silica gel 60” for short) in experiment [1] was “No 1,5-anhydrofructose and glucose were released”. Also, the Product released in experiment [1] (setting [3]) is given as 0 nmol. The “inhibition of enzymic activity” value in experiment [2] (amylopectin as substrate) and in experiment [2] (maltose as substrate) was “no inhibition” each time.
For the compound `OC[C@@H](O)[C@@H](O[C@H]1O[C@H](CO)[C@@H](O)[C@H](O)[C@H]1O)[C@H](O)[C@@H](O)CO` [Maltitol, maltitol], the Product released in experiment [1] (setting [4]) is on record as 122.4 nmol. For the same compound, the “inhibition of enzymic activity” value in experiment [2] (amylopectin as substrate) is on record as approximately 27%. Also, in experiment [2] (maltose as substrate), the “inhibition of enzymic activity” value is “around 47%”, the type of inhibition result was “competitive” and the “inhibition of the algal enzyme (in words)” value (from here on “inhibition … (in words)”) is “inhibited”.
Take `OC[C@H]1O[C@H](O[C@H]2[C@H](O)[C@@H](CO)OC(O)[C@@H]2O)[C@H](O)[C@@H](O)[C@@H]1O` (stereo partly shown) [Nigerose, nigerose]: the “activity of the lyase with the substrate (in words)” value (“activity of the lyase” for short) in experiment [1] is recorded as “able to degrade”. Besides, in experiment [1] (setting [4]), the Product released is listed as 13452.8 nmol.
For the compound “blocked p-nitrophenyl-α-D-maltoheptaoside [BPNPG7]”, in experiment [1], the “activity of the lyase” value is “very low degrading rate; also recorded: little or no activity”. For the same compound, in experiment [1] (substrate 2 mM, 4.91 μg enzyme), the Product released is 6.16 nmol.
Consider `CO[C@H]1O[C@H](CO)[C@@H](O)[C@H](O)[C@H]1O` [Methyl α-D-glucoside, methyl α-D-glucoside], for which the “release … on Silica gel 60” value in experiment [1] is “No 1,5-anhydrofructose and glucose were released”. Moreover, the Product released in experiment [1] (setting [5]) is listed as 0 nmol. For the same compound, the “inhibitory effect on the enzyme activity” value is on record as “no inhibitory effect” in experiment [2] (12 mM, maltose as substrate) and “no inhibitory effect” in experiment [2] (12 mM, soluble starch as substrate).
As to `[Cl-].[K+]` [KCl], the “inhibition of the enzyme” value in experiment [2] (amylopectin as substrate) and in experiment [2] (maltose as substrate) was “no inhibition” in each case.
In the case of `OC[C@H]1O[C@H](OC[C@H]2OC(O)[C@H](O)[C@@H](O)[C@@H]2O)[C@H](O)[C@@H](O)[C@H]1O` (stereo partly shown) [Melibiose, melibiose], the “release … on Silica gel 60” value in experiment [1] was “No 1,5-anhydrofructose and glucose were released”. Besides, in experiment [1] (setting [3]), the Product released amounted to 0 nmol. Besides, the “inhibition of enzymic activity” value in experiment [2] (amylopectin as substrate) and in experiment [2] (maltose as substrate) was “no inhibition” in each case.
For `[Cl-].[Cl-].[Mg+2]` [MgCl2], the “inhibition of the enzyme” value in experiment [2] (amylopectin as substrate) and in experiment [2] (maltose as substrate) was “no inhibition” each time.
Take `OC[C@H]1NC[C@H](O)[C@@H](O)[C@@H]1O` [Deoxynojirimycin, deoxynojirimycin]: the “inhibition of enzyme activity” value in experiment [2] (inhibitor 0.165 mM, maltose as substrate) is recorded as “inhibit the activity completely”; in experiment [2] (setting [6]), “completely inhibited”; in experiment [2] (setting [7]), “completely inhibited”. For the same compound, in experiment [2] (no concentration), the “inhibition … (in words)” value was “strongly inhibited”.
Consider `OC[C@H]1O[C@H](OC[C@H]2O[C@H](O[C@H]3[C@H](O)[C@@H](O)C(O)O[C@@H]3CO)[C@H](O)[C@@H](O)[C@@H]2O)[C@H](O)[C@@H](O)[C@@H]1O` (stereo partly shown) [Panose, panose], for which the Product released in experiment [1] (setting [4]) is 13465.6 nmol.
In the case of `O=[N+]([O-])c1ccc(O[C@H]2O[C@H](CO)[C@H](O)[C@H](O)[C@H]2O)cc1` [PNPGal, p-nitrophenyl-α-D-galactoside], the “activity of the lyase” value in experiment [1] is “no activity”. The Product released in experiment [1] (substrate 2 mM, 1.64 μg enzyme) is recorded as 0 nmol.
In the case of `[Cl][Hg][Cl]` [HgCl2], the “inhibition … (in words)” value in experiment [2] (no concentration) is “strongly inhibited”.
Regarding `O[C@H]1[C@H](O)[C@@H](O)[C@H](O)[C@@H](O)[C@H]1O` [inositol], the “inhibition of enzymic activity” value in experiment [2] (amylopectin as substrate) and in experiment [2] (maltose as substrate) was “no inhibition” in each case.
With `OC[C@@H](O)[C@@H](O)[C@H](O)[C@@H](O)CO` [sorbitol], the “inhibition of enzymic activity” value in experiment [2] (amylopectin as substrate) and in experiment [2] (maltose as substrate) was “no inhibition” in each case.
`OC[C@H]1O[C@@H]2O[C@H]3[C@H](O)[C@@H](O)[C@@H](O[C@H]4[C@H](O)[C@@H](O)[C@@H](O[C@H]5[C@H](O)[C@@H](O)[C@@H](O[C@H]6[C@H](O)[C@@H](O)[C@@H](O[C@H]7[C@H](O)[C@@H](O)[C@@H](O[C@H]1[C@H](O)[C@H]2O)O[C@@H]7CO)O[C@@H]6CO)O[C@@H]5CO)O[C@@H]4CO)O[C@@H]3CO` [Cyclohexaamylose, cyclohexaamylose]: the “release … on Silica gel 60” value in experiment [1] is “No 1,5-anhydrofructose and glucose were released”. Moreover, the Product released in experiment [1] (substrate 20 mM, 1.64 μg enzyme) was determined as 0 nmol. The “inhibitory effect on the enzyme activity” value in experiment [2] (4 mM, maltose as substrate) was “no inhibitory effect”; in experiment [2] (4 mM, soluble starch as substrate), “no inhibitory effect”.
`OC[C@H]1O[C@@H](O[C@H]2[C@H](O)[C@@H](O)C(O)O[C@@H]2CO)[C@H](O)[C@@H](O)[C@H]1O` (stereo partly shown) [Lactose, lactose]: the “release … on Silica gel 60” value in experiment [1] was “No 1,5-anhydrofructose and glucose were released”. Moreover, the Product released in experiment [1] (setting [3]) stood at 0 nmol. Further, the “inhibition of enzymic activity” value in experiment [2] (amylopectin as substrate) and in experiment [2] (maltose as substrate) was “no inhibition” each time.
As for `OC[C@H]1O[C@H](OC[C@H]2OC(O)[C@H](O)[C@@H](O)[C@@H]2O)[C@H](O)[C@@H](O)[C@@H]1O` (stereo partly shown) [Isomaltose, isomaltose], the “release … on Silica gel 60” value in experiment [1] was “No 1,5-anhydrofructose and glucose were released”. Besides, the Product released in experiment [1] (setting [4]) is listed as 0 nmol.
Turning to `O=[N+]([O-])c1ccc(O[C@H]2O[C@H](CO)[C@@H](O)[C@H](O)[C@@H]2O)cc1` [PNPMan, p-introphenyl-α-D-mannoside], the “activity of the lyase” value in experiment [1] is listed as “no activity”. Moreover, in experiment [1] (substrate 2 mM, 1.64 μg enzyme), the Product released is listed as 0 nmol.
Turning to `OC[C@H]1O[C@H](O[C@H]2O[C@H](CO)[C@@H](O)[C@H](O)[C@H]2O)[C@H](O)[C@@H](O)[C@@H]1O` [Trehalose, trehalose], the “release … on Silica gel 60” value in experiment [1] was “No 1,5-anhydrofructose and glucose were released”. Moreover, the Product released in experiment [1] (setting [3]) is 0 nmol. Moreover, the “inhibition of enzymic activity” value in experiment [2] (amylopectin as substrate) and in experiment [2] (maltose as substrate) was “no inhibition” each time.
With `OC[C@H]1O[C@@H](O[C@H]2[C@H](O)[C@@H](O)C(O)O[C@@H]2CO)[C@H](O)[C@@H](O)[C@@H]1O` (stereo partly shown) [Cellobiose, cellobiose], the “release … on Silica gel 60” value in experiment [1] is “No 1,5-anhydrofructose and glucose were released”. For the same compound, the Product released in experiment [1] (setting [4]) was 0 nmol.
Take `O=P(O)(O)O[C@H]1O[C@H](CO)[C@@H](O)[C@H](O)[C@H]1O` [Glucose 1-Phosphate]: the Product released in experiment [1] (setting [5]) is 0 nmol.
Consider xylose, for which the “inhibition of enzymic activity” value in experiment [2] (amylopectin as substrate) and in experiment [2] (maltose as substrate) was “no inhibition” each time.
With arabinose, the “inhibition of enzymic activity” value in experiment [2] (amylopectin as substrate) and in experiment [2] (maltose as substrate) was “no inhibition” in each case.
Turning to `[Cl][Mn][Cl]` [MnCl2], the “inhibition of the enzyme” value in experiment [2] (amylopectin as substrate) and in experiment [2] (maltose as substrate) was “no inhibition” each time.
On to `O=C(O)c1cc[c]([Hg][Cl])cc1` [PCMB, p-chloromercuribenzoic acid], for which the “inhibition of enzyme activity” value in experiment [2] (setting [6]) and in experiment [2] (setting [7]) was “around 90%” in each case. Further, the “inhibition … (in words)” value in experiment [2] (no concentration) is “strongly inhibited”.
In the case of `OCC(O)CO` [glycerol], the “inhibition of enzymic activity” value in experiment [2] (amylopectin as substrate) and in experiment [2] (maltose as substrate) was “no inhibition” in each case.
With `[Ca+2].[Cl-].[Cl-]` [CaCl2], the “inhibition of the enzyme” value in experiment [2] (amylopectin as substrate) and in experiment [2] (maltose as substrate) was “no inhibition” each time.
